Measured values published in ChEMBL document CHEMBL4007479, “Immunoregulatory effect assessment of a novel melanin and its carboxymethyl derivative” (2017).

Experiments:
Assay type in all cases: functional
[1] = system: Mus musculus; experiment: Immuno-regulatory activity in cyclophosphamide-induced immunocompromised Kunming mouse model assessed as MDA content in serum at 200 mg/kg administered once daily via gavage for 30 consecutive days measured after 12 hrs of fasting following last dose on day 30 (reference value: 2.77 +/- 0.05)
[2] = system: Mus musculus; experiment: Immuno-regulatory activity in cyclophosphamide-induced immunocompromised Kunming mouse model assessed as MDA content in liver at 50 mg/kg administered once daily via gavage for 30 consecutive days measured after 12 hrs of fasting following last dose on day 30 (reference value: 3.34 +/- 0.18)
[3] = system: Mus musculus; experiment: Immuno-regulatory activity in cyclophosphamide-induced immunocompromised Kunming mouse model assessed as peritoneal macrophage phagocytosis rate at 200 mg/kg administered once daily via gavage for 30 consecutive days measured after 12 hrs of fasting following last dose by Giemsa staining based assay (reference value: 21.33 +/- 0.98%)
[4] = system: Mus musculus; experiment: Immuno-regulatory activity in cyclophosphamide-induced immunocompromised Kunming mouse model assessed as SOD activity in kidney at 50 mg/kg administered once daily via gavage for 30 consecutive days measured after 12 hrs of fasting following last dose on day 30 (reference value: 198.82 +/- 9.98)
[5] = system: Mus musculus; experiment: Immuno-regulatory activity in cyclophosphamide-induced immunocompromised Kunming mouse model assessed as SOD activity in kidney at 200 mg/kg administered once daily via gavage for 30 consecutive days measured after 12 hrs of fasting following last dose on day 30 (reference value: 198.82 +/- 9.98)
[6] = system: Mus musculus; experiment: Immuno-regulatory activity in cyclophosphamide-induced immunocompromised Kunming mouse model assessed as GSH-PX activity in spleen at 200 mg/kg administered once daily via gavage for 30 consecutive days measured after 12 hrs of fasting following last dose on day 30 (reference value: 7.97 +/- 1.21)
[7] = system: Mus musculus; experiment: Immuno-regulatory activity in cyclophosphamide-induced immunocompromised Kunming mouse model assessed as MDA content in spleen at 50 mg/kg administered once daily via gavage for 30 consecutive days measured after 12 hrs of fasting following last dose on day 30 (reference value: 4.9 +/- 0.11)
[8] = system: Mus musculus; experiment: Immuno-regulatory activity in cyclophosphamide-induced immunocompromised Kunming mouse model assessed as enhancement of B cell-mediated humoral immunity by measuring SRBC half hemolysis value at 50 mg/kg administered once daily via gavage for 30 consecutive days and SRBC immunization on day 26 measured after 12 hrs of fasting following last dose on day 30 (reference value: 173.42 +/- 7.75)
[9] = system: Mus musculus; experiment: Immuno-regulatory activity in cyclophosphamide-induced immunocompromised Kunming mouse model assessed as MDA content in serum at 50 mg/kg administered once daily via gavage for 30 consecutive days measured after 12 hrs of fasting following last dose on day 30 (reference value: 2.77 +/- 0.05)
[10] = system: Mus musculus; experiment: Immuno-regulatory activity in cyclophosphamide-induced immunocompromised Kunming mouse model assessed as enhancement of B cell-mediated humoral immunity by measuring antibody producing cells in spleen against SRBC at 200 mg/kg administered once daily via gavage for 30 consecutive days measured after 12 hrs of fasting following last dose on day 30 (reference value: 0.48 +/- 0.05)
[11] = system: Mus musculus; experiment: Immuno-regulatory activity in cyclophosphamide-induced immunocompromised Kunming mouse model assessed as MDA content in spleen at 200 mg/kg administered once daily via gavage for 30 consecutive days measured after 12 hrs of fasting following last dose on day 30 (reference value: 4.9 +/- 0.11)
[12] = system: Mus musculus; experiment: Immuno-regulatory activity in cyclophosphamide-induced immunocompromised Kunming mouse model assessed as GSH-PX activity in kidney at 50 mg/kg administered once daily via gavage for 30 consecutive days measured after 12 hrs of fasting following last dose on day 30 (reference value: 10.12 +/- 0.25)
[13] = system: Mus musculus; experiment: Immuno-regulatory activity in cyclophosphamide-induced immunocompromised Kunming mouse model assessed as peritoneal macrophage phagocytosis index at 50 mg/kg administered once daily via gavage for 30 consecutive days measured after 12 hrs of fasting following last dose by Giemsa staining based assay (reference value: 0.5 +/- 0.03)
[14] = system: Mus musculus; experiment: Immuno-regulatory activity in cyclophosphamide-induced immunocompromised Kunming mouse model assessed as recovery from thymus damage by measuring thymus weight index at 200 mg/kg administered once daily via gavage for 30 consecutive days measured after 12 hrs of fasting following last dose (reference value: 0.98 +/- 0.14)
[15] = system: Mus musculus; experiment: Immuno-regulatory activity in cyclophosphamide-induced immunocompromised Kunming mouse model assessed as GSH-PX activity in serum at 50 mg/kg administered once daily via gavage for 30 consecutive days measured after 12 hrs of fasting following last dose on day 30 (reference value: 5.66 +/- 0.17)
[16] = system: Mus musculus; experiment: Immuno-regulatory activity in cyclophosphamide-induced immunocompromised Kunming mouse model assessed as MDA content in liver at 200 mg/kg administered once daily via gavage for 30 consecutive days measured after 12 hrs of fasting following last dose on day 30 (reference value: 3.34 +/- 0.18)
[17] = system: Mus musculus; experiment: Immuno-regulatory activity in cyclophosphamide-induced immunocompromised Kunming mouse model assessed as enhancement of B cell-mediated humoral immunity by measuring SRBC half hemolysis value at 200 mg/kg administered once daily via gavage for 30 consecutive days and SRBC immunization on day 26 measured after 12 hrs of fasting following last dose on day 30 (reference value: 173.42 +/- 7.75)
[18] = system: Mus musculus; experiment: Immuno-regulatory activity in cyclophosphamide-induced immunocompromised Kunming mouse model assessed as enhancement of B cell-mediated humoral immunity by measuring antibody producing cells in spleen against SRBC at 50 mg/kg administered once daily via gavage for 30 consecutive days measured after 12 hrs of fasting following last dose on day 30 (reference value: 0.48 +/- 0.05)
[19] = system: Mus musculus; experiment: Immuno-regulatory activity in cyclophosphamide-induced immunocompromised Kunming mouse model assessed as peritoneal macrophage phagocytosis index at 200 mg/kg administered once daily via gavage for 30 consecutive days measured after 12 hrs of fasting following last dose by Giemsa staining based assay (reference value: 0.5 +/- 0.03)
[20] = system: Mus musculus; experiment: Immuno-regulatory activity in cyclophosphamide-induced immunocompromised Kunming mouse model assessed as concanavalin A-induced lymphocyte proliferation stimulate index in spleen at 200 mg/kg administered once daily via gavage for 30 consecutive days measured after 12 hrs of fasting following last dose on day 30 by MTT assay (reference value: 0.054 +/- 0.001)
[21] = system: Mus musculus; experiment: Immuno-regulatory activity in cyclophosphamide-induced immunocompromised Kunming mouse model assessed as concanavalin A-induced lymphocyte proliferation stimulate index in spleen at 50 mg/kg administered once daily via gavage for 30 consecutive days measured after 12 hrs of fasting following last dose on day 30 by MTT assay (reference value: 0.054 +/- 0.001)
[22] = system: Mus musculus; experiment: Immuno-regulatory activity in cyclophosphamide-induced immunocompromised Kunming mouse model assessed as SOD activity in serum at 200 mg/kg administered once daily via gavage for 30 consecutive days measured after 12 hrs of fasting following last dose on day 30 (reference value: 91.98 +/- 3.32)
[23] = system: Mus musculus; experiment: Immuno-regulatory activity in cyclophosphamide-induced immunocompromised Kunming mouse model assessed as GSH-PX activity in kidney at 200 mg/kg administered once daily via gavage for 30 consecutive days measured after 12 hrs of fasting following last dose on day 30 (reference value: 10.12 +/- 0.25)
[24] = system: Mus musculus; experiment: Immuno-regulatory activity in cyclophosphamide-induced immunocompromised Kunming mouse model assessed as recovery from spleen damage by measuring spleen weight index at 50 mg/kg administered once daily via gavage for 30 consecutive days measured after 12 hrs of fasting following last dose (reference value: 4.59 +/- 0.28)
[25] = system: Mus musculus; experiment: Immuno-regulatory activity in cyclophosphamide-induced immunocompromised Kunming mouse model assessed as body weight at 200 mg/kg administered once daily via gavage for 30 consecutive days measured after 12 hrs of fasting following last dose (reference value: 30.3 +/- […])
[26] = system: Mus musculus; experiment: Immuno-regulatory activity in cyclophosphamide-induced immunocompromised Kunming mouse model assessed as recovery from spleen damage by measuring spleen weight index at 200 mg/kg administered once daily via gavage for 30 consecutive days measured after 12 hrs of fasting following last dose (reference value: 4.59 +/- 0.28)
[27] = system: Mus musculus; experiment: Immuno-regulatory activity in cyclophosphamide-induced immunocompromised Kunming mouse model assessed as SOD activity in serum at 50 mg/kg administered once daily via gavage for 30 consecutive days measured after 12 hrs of fasting following last dose on day 30 (reference value: 91.98 +/- 3.32)
[28] = system: Mus musculus; experiment: Immuno-regulatory activity in cyclophosphamide-induced immunocompromised Kunming mouse model assessed as MDA content in kidney at 50 mg/kg administered once daily via gavage for 30 consecutive days measured after 12 hrs of fasting following last dose on day 30 (reference value: 2.35 +/- 0.06)
[29] = system: Mus musculus; experiment: Immuno-regulatory activity in cyclophosphamide-induced immunocompromised Kunming mouse model assessed as MDA content in kidney at 200 mg/kg administered once daily via gavage for 30 consecutive days measured after 12 hrs of fasting following last dose on day 30 (reference value: 2.35 +/- 0.06)
[30] = system: Mus musculus; experiment: Immuno-regulatory activity in cyclophosphamide-induced immunocompromised Kunming mouse model assessed as GSH-PX activity in liver at 200 mg/kg administered once daily via gavage for 30 consecutive days measured after 12 hrs of fasting following last dose on day 30 (reference value: 9.52 +/- 0.26)
[31] = system: Mus musculus; experiment: Immuno-regulatory activity in cyclophosphamide-induced immunocompromised Kunming mouse model assessed as SOD activity in spleen at 200 mg/kg administered once daily via gavage for 30 consecutive days measured after 12 hrs of fasting following last dose on day 30 (reference value: 94.84 +/- 3.28)
[32] = system: Mus musculus; experiment: Immuno-regulatory activity in cyclophosphamide-induced immunocompromised Kunming mouse model assessed as SOD activity in liver at 50 mg/kg administered once daily via gavage for 30 consecutive days measured after 12 hrs of fasting following last dose on day 30 (reference value: 160.65 +/- 3.12)
[33] = system: Mus musculus; experiment: Immuno-regulatory activity in cyclophosphamide-induced immunocompromised Kunming mouse model assessed as SOD activity in liver at 200 mg/kg administered once daily via gavage for 30 consecutive days measured after 12 hrs of fasting following last dose on day 30 (reference value: 160.65 +/- 3.12)
[34] = system: Mus musculus; experiment: Immuno-regulatory activity in cyclophosphamide-induced immunocompromised Kunming mouse model assessed as enhancement of T cell-mediated delayed-type hypersensitivity by measuring increase in paw weight at 50 mg/kg administered once daily via gavage for 30 consecutive days and SRBC immunization on day 26 measured after 12 hrs of fasting following last dose on day 30 relative to control
[35] = system: Mus musculus; experiment: Immuno-regulatory activity in cyclophosphamide-induced immunocompromised Kunming mouse model assessed as GSH-PX activity in spleen at 50 mg/kg administered once daily via gavage for 30 consecutive days measured after 12 hrs of fasting following last dose on day 30 (reference value: 7.97 +/- 1.21)
[36] = system: Mus musculus; experiment: Immuno-regulatory activity in cyclophosphamide-induced immunocompromised Kunming mouse model assessed as body weight at 50 mg/kg administered once daily via gavage for 30 consecutive days measured after 12 hrs of fasting following last dose (reference value: 30.3 +/- […])
[37] = system: Mus musculus; experiment: Immuno-regulatory activity in cyclophosphamide-induced immunocompromised Kunming mouse model assessed as recovery from thymus damage by measuring thymus weight index at 50 mg/kg administered once daily via gavage for 30 consecutive days measured after 12 hrs of fasting following last dose (reference value: 0.98 +/- 0.14)
[38] = system: Mus musculus; experiment: Immuno-regulatory activity in cyclophosphamide-induced immunocompromised Kunming mouse model assessed as GSH-PX activity in liver at 50 mg/kg administered once daily via gavage for 30 consecutive days measured after 12 hrs of fasting following last dose on day 30 (reference value: 9.52 +/- 0.26)
[39] = system: Mus musculus; experiment: Immuno-regulatory activity in cyclophosphamide-induced immunocompromised Kunming mouse model assessed as SOD activity in spleen at 50 mg/kg administered once daily via gavage for 30 consecutive days measured after 12 hrs of fasting following last dose on day 30 (reference value: 94.84 +/- 3.28)
[40] = system: Mus musculus; experiment: Immuno-regulatory activity in cyclophosphamide-induced immunocompromised Kunming mouse model assessed as peritoneal macrophage phagocytosis rate at 50 mg/kg administered once daily via gavage for 30 consecutive days measured after 12 hrs of fasting following last dose by Giemsa staining based assay (reference value: 21.33 +/- 0.98%)
[41] = system: Mus musculus; experiment: Immuno-regulatory activity in cyclophosphamide-induced immunocompromised Kunming mouse model assessed as macrophage elimination ability against foreign substances by measuring carbon clearance index at 50 mg/kg administered once daily via gavage for 30 consecutive days measured after 12 hrs of fasting following last dose (reference value: 2.68 +/- 0.3)
[42] = system: Mus musculus; experiment: Immuno-regulatory activity in cyclophosphamide-induced immunocompromised Kunming mouse model assessed as GSH-PX activity in serum at 200 mg/kg administered once daily via gavage for 30 consecutive days measured after 12 hrs of fasting following last dose on day 30 (reference value: 5.66 +/- 0.17)
[43] = system: Mus musculus; experiment: Immuno-regulatory activity in cyclophosphamide-induced immunocompromised Kunming mouse model assessed as macrophage elimination ability against foreign substances by measuring carbon clearance index at 200 mg/kg administered once daily via gavage for 30 consecutive days measured after 12 hrs of fasting following last dose (reference value: 2.68 +/- 0.3)
[44] = system: Mus musculus; experiment: Immuno-regulatory activity in cyclophosphamide-induced immunocompromised Kunming mouse model assessed as enhancement of T cell-mediated delayed-type hypersensitivity by measuring increase in paw weight at 200 mg/kg administered once daily via gavage for 30 consecutive days and SRBC immunization on day 26 measured after 12 hrs of fasting following last dose on day 30 relative to control

SMILES: O=C(O)C1c2cc(O)c(O)c3sc4c5c(O)[nH]c6cc(O)c(O)c(c65)c5c6ccc7ccc1c(c76)n(c23)c45 (centres undefined)
- Activity [1]: 2
- Activity [2]: 2.99
- Activity [3]: 26.31%
- Activity [4]: 218.42
- Activity [5]: 233.49
- Activity [6]: 11.99
- Activity [7]: 4.54
- Activity [8]: 175.62
- Activity [9]: 2.66
- Activity [10]: 0.62
- Activity [11]: 3.13
- Activity [12]: 11.57
- Activity_index [13]: 0.53
- Activity_index [14]: 1.37 mg/g
- Activity [15]: 5.76
- Activity [16]: 2.25
- Activity [17]: 182.25
- Activity [18]: 0.52
- Activity_index [19]: 0.79
- Activity_index [20]: 0.072
- Activity_index [21]: 0.061
- Activity [22]: 104.09
- Activity [23]: 16.79
- Activity_index [24]: 4.61 mg/g
- Activity [25]: 35.7 g
- Activity_index [26]: 5.13 mg/g
- Activity [27]: 94.15
- Activity [28]: 2.07
- Activity [29]: 1.83
- Activity [30]: 16.1
- Activity [31]: 110.54
- Activity [32]: 174.51
- Activity [33]: 202.26
- Activity [34]: 42.87%
- Activity [35]: 8.76
- Activity [36]: 32.9 g
- Activity_index [37]: 1.01 mg/g
- Activity [38]: 9.76
- Activity [39]: 106.25
- Activity [40]: 22.14%
- Activity_index [41]: 2.95
- Activity [42]: 7.27
- Activity_index [43]: 3.54
- Activity [44]: 79.3%
